Source: publication PMC5635026, “Homo-PROTACs: bivalent small-molecule dimerizers of the VHL E3 ubiquitin ligase to induce self-degradation” (Nature Communications, 2017)

How the values were obtained:
[1] = molecular target: pVHL30 (Homo sapiens, UniProt P40337); experiment: Immunoblot of pVHL30 protein level in HeLa cells after compound treatment; format: cell-based; set-up: endogenous in cells; host or cells: HeLa; conditions: for remaining activity at 1 µM / depletion of target protein (pVHL30 / VHL): 10 h; for remaining activity at 1 µM: DMSO = 100, Fig. 4a, read-out: pVHL30 band quantification normalized to 0.1% DMSO
Experimental: Cell culture. Human cell lines HeLa, U2OS and HEK 293, purchased from ATCC, were propagated in DMEM supplemented with 10% fetal bovine serum (FBS), L- glutamine, 100 μg ml^−1 of penicillin/streptomycin at 37 °C and 5% CO2. Cells were maintained for no more than 30 passages. All cell lines were routinely tested for mycoplasma contamination using MycoAlert kit from Lonza. For compound treatment experiments, cells were transferred in six-well plates with either 3 × 10^5 or 5 × 10^5 cells per well in 2 ml of media. At 80% confluence, cells were treated with compounds at the desired concentration, reaching final DMSO concentration of 0.1% v/v. Cells were incubated at 37 °C and 5% CO2 for the desired time before harvesting.
Immunoblotting. Cells were lysed in lysis buffer (20 mM Tris pH 8, 150 mM NaCl, 1% Triton × 100) and a protease inhibitor cocktail (Roche) per 10 ml buffer. For protein extracts, the dishes were placed on ice. The media was aspirated and the tissue layer washed twice with ice-cold phosphate buffer saline (PBS). Lysis buffer (120 μl) was added and the cells detached from the surface with a cell scraper. After removal of the insoluble fraction by centrifugation, the protein concentration of the supernatant was determined by Pierce™ Coomassie (Bradford) Protein Assay Kit. Protein extracts were fractionated by SDS-PAGE on 4–12% Tris-Acetate NuPage® Novex® (Life Technologies) polyacrylamide gels and transferred to a nitrocellulose membrane using wet transfer. The membrane was then blocked with 5 % w/v Bovine serum albumin (BSA) in Tris-buffered saline (TBS) with 0.1% w/v Tween-20. For detecting proteins the following primary antibodies in the given concentrations were used: anti-β-Actin (Cell Signaling Technology, 4970S, 13E5) 1:2000, anti-VHL (Cell Signaling Technology, #68547) 1:1000, anti-Hif-1α (BD Biosciences, 610959, clone 54) 1:1,000, anti-hydroxy-HIF-1α (Hyp564) (Cell Signaling Techonology; #3434) 1:1,000, anti-PHD2 (Bethyl Laboratories; A300-322A) 1:1,000, anti-PHD3 (Bethyl Laboratories; A300-327A) 1:1000, anti-CRBN (Proteintech; 11435-1-AP) 1:1,000. Following incubation with a horseradish peroxidase-conjugated secondary antibody (Cell Signaling Technology), the signal was developed using enhanced chemiluminescence (ECL) Western Blotting Detection Kit (Amersham) on Amersham Hyperfilm ECL film (Amersham). Band quantification was performed using ImageJ software and reported as relative amount as ratio of the each protein band relative to the lane’s loading control. The values obtained were then normalized to 0.1% DMSO vehicle control. See Supplementary Fig. 12 for full-scanned images of western-blots shown in the main text figures.

[2] = test system: Putative glycerol kinase 5 (GK5); experiment: TMT MS proteomics in HeLa cells, GK5 abundance; format: cell-based, Homo sapiens; conditions: 1 µM, 10 h, two replicates
Experimental: MS proteomics. Sample preparation. HeLa cells were seeded at 5 × 10^6 on a 10 cm plate 16 h before treatment. […] Cells were incubated at 37 °C and 5% CO2 for 10 h before harvesting. Cells were placed on ice and medium was removed and cells were washed twice with cold PBS. Cells were lysed in 0.5 ml of 100 mM Tris pH 8.0, 4% (w/v) SDS supplemented with protease inhibitor cocktail (Roche). The lysate was pulse sonicated briefly and then centrifuged at 17,000 × g for 15 min at 4 °C. The supernatant fraction of cell extract was snap-frozen in liquid nitrogen and stored in −80 °C freezer. Further sample processing, digestion, desalting, labeling and fractionation were performed as previously described.
nLC-MS/MS analysis. The TMT 10plex fractions were first analyzed as previously described. Briefly, the TMT 10plex fractions were analyzed sequentially on a Q Exactive HF Hybrid Quadrupole-Orbitrap Mass Spectrometer (Thermo Scientific) coupled to an UltiMate 3000 RSLCnano UHPLC system (Thermo Scientific) and EasySpray column (75 μm × 50 cm, PepMap RSLC C18 column, 2 μm, 100 Å, Thermo Scientific). The MS2 isolation window was set to 0.4 Da and the resolution set at 120,000. MS2 resolution was set at 60,000. The AGC targets for MS1 and MS2 were set at 3e^6 ions and 1e5 ions, respectively. The normalized collision energy was set at 32%. […] After the first analysis, the TMT labeled fractions were re-analyzed on the Q-Exactive HF using the same instrument settings and a target list generated from a theoretical trypsin digest of VHL. […] After the second analysis, two fractions were further analyzed using a targeted SIM/ddMS2 method on the Q-Exactive HF. […]
Peptide and protein identification. All the raw MS data files from the three analyses were merged and searched against the Uniprot-sprot-Trembl-Human-Canonical database by Maxquant software 1.5.3.30 for protein identification and TMT reporter ion quantitation. […] Quantified proteins were filtered if the absolute fold-change difference between the two DMSO replicates was ≥ 1.5.

pVHL30, sequence (P40337 whole entry): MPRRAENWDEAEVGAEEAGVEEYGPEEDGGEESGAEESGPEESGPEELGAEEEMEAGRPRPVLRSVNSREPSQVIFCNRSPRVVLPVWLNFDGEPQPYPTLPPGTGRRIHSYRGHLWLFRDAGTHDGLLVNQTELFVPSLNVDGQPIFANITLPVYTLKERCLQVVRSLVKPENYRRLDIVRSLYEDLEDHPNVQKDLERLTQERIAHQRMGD

`Cc1ncsc1-c1ccc(CNC(=O)[C@@H]2C[C@@H](O)CN2C(=O)[C@@H](NC(=O)COCCOCCOCCOCC(=O)N[C@H](C(=O)N2C[C@H](O)C[C@H]2C(=O)NCc2ccc(-c3scnc3C)cc2)C(C)(C)C)C(C)(C)C)cc1` [CM09, N ^1 ,N ^14-bis((S)-1-((2S,4R)-4-hydroxy-2-((4-(4-methylthiazol-5-yl)benzyl)carbamoyl)pyrrolidin-1-yl)-3,3-dimethyl-1-oxobutan-2-yl)-3,6,9,12-tetraoxatetradecanediamide] was tested, and the remaining activity at 1 µM ([1]; 1 µM) was 19%, the “degradation of pVHL in time course” value ([1]; 1 µM, even in the longer time points) was “Incomplete degradation” and the “average normalized ratio to DMSO, GK5” value [2] was 1.05.
In the case of `Cc1ncsc1-c1ccc(CNC(=O)[C@@H]2C[C@@H](O)CN2C(=O)[C@@H](NC(=O)COCCOCCOCCOCCOCC(=O)N[C@H](C(=O)N2C[C@H](O)C[C@H]2C(=O)NCc2ccc(-c3scnc3C)cc2)C(C)(C)C)C(C)(C)C)cc1` [CM10, N ^1 ,N ^17-bis((S)-1-((2S,4R)-4-hydroxy-2-((4-(4-methylthiazol-5-yl)benzyl)carbamoyl)pyrrolidin-1-yl)-3,3-dimethyl-1-oxobutan-2-yl)-3,6,9,12,15-pentaoxaheptadecanediamide], the “depletion of target protein (pVHL30 / VHL)” value ([1]; 1 µM) is reported as “total knockdown”, the remaining activity at 1 µM ([1]; 1 µM) is reported as 3% and the “average normalized ratio to DMSO, GK5” value [2] is reported as 1.22.
`Cc1ncsc1-c1ccc(CNC(=O)[C@@H]2C[C@@H](O)CN2C(=O)[C@@H](NC(=O)COCCOCCOCCOCCOCCOCC(=O)N[C@H](C(=O)N2C[C@H](O)C[C@H]2C(=O)NCc2ccc(-c3scnc3C)cc2)C(C)(C)C)C(C)(C)C)cc1` [CM11, N ^1 ,N ^20-bis((S)-1-((2S,4R)-4-hydroxy-2-((4-(4-methylthiazol-5-yl)benzyl)carbamoyl)pyrrolidin-1-yl)-3,3-dimethyl-1-oxobutan-2-yl)-3,6,9,12,15,18-hexaoxaicosanediamide] was tested, and the “increase in cellular activity compared to parent inhibitor VH032” value [1] was over 1000 fold, the “depletion of target protein (pVHL30 / VHL)” value ([1]; 1 µM) was “total knockdown” and the remaining activity at 1 µM ([1]; 1 µM) was 1%. For the same compound, the pVHL30 levels detected ([1]; 1 µM, after 24–36 h treatment) was “up to 11%”, the “decrease of pVHL30 level” value ([1]; 1 µM, after 2 h) was over 70% and the “decrease of pVHL30 level” value ([1]; 1 µM, after 8 h) was “essentially to completion”. The “DC99 (complete depletion of pVHL30)” value ([1]; 4 h) was 10 nM, the “effective degrading concentrations lower than inhibitory concentrations of VH032” value ([1]; compared to VH032) was > 3 orders of magnitude and the “average normalized ratio to DMSO, GK5” value [2] was 0.94.
